These results are taken from ChEMBL document CHEMBL1152961, “Synthesis and biological evaluation of novel carbon-11 labeled pyridyl ethers: candidate ligands for in vivo imaging of alpha4beta2 nicotinic acetylcholine receptors (alpha4beta2-nAChRs) in the brain with positron emission tomography” (Bioorg Med Chem, 2009).

Molecules are shown by their SMILES. pKi: −log10 of the molar value.

In data set [1] the target is Neuronal acetylcholine receptor subunit alpha-2 (Rattus norvegicus, UniProt P12389+P12390). The data set is described as follows: Displacement of [3H]epibatidine from rat alpha2beta2 nicotinic receptor expressed in human HEK293 cells by liquid scintillation counting. The format is cell-based. For orientation: In a radioligand displacement assay an active substance lowers the binding of a labelled ligand.
Sequence of Neuronal acetylcholine receptor subunit alpha-2 (P12389 whole entry, one chain of several): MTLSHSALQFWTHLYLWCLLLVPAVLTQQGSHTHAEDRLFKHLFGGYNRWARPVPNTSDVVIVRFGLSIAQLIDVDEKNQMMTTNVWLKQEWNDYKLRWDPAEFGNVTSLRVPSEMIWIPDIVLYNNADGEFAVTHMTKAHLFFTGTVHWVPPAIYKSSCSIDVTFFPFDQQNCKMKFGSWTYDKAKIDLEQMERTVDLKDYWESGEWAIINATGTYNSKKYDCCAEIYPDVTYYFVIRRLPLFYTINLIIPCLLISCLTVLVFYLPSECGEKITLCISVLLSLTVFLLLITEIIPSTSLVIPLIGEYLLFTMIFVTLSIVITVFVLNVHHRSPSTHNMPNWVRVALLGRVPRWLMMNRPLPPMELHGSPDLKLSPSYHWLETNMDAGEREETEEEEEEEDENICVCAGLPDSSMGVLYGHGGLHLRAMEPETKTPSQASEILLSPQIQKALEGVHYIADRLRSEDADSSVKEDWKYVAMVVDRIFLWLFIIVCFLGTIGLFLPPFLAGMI

For data set [2], the target named is Neuronal acetylcholine receptor; alpha2/beta4 (Rattus norvegicus, UniProt P12389+P12392). Kind of data set: Displacement of [3H]epibatidine from rat alpha2beta4 nicotinic receptor expressed in human HEK293 cells by liquid scintillation counting. The class given is cell-based.
Sequence of Neuronal acetylcholine receptor; alpha2/beta4 (P12389 whole entry): as the sequence (P12389 whole entry, one chain of several) above
Sequence of Neuronal acetylcholine receptor; alpha2/beta4 (P12392 whole entry): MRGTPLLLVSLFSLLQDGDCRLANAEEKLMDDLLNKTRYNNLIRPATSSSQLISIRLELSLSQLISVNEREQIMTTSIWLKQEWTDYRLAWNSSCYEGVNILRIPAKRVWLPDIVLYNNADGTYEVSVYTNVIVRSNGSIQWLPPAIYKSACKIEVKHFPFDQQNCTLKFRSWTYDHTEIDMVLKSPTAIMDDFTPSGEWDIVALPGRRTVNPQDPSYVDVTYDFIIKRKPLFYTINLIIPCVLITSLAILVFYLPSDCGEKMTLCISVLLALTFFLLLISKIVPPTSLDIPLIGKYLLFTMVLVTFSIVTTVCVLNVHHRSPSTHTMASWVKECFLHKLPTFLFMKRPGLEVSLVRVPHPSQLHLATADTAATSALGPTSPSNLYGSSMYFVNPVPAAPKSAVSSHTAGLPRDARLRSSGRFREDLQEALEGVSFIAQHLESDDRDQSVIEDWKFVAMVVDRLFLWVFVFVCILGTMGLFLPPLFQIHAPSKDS
Data set [3] deals with Neuronal acetylcholine receptor; alpha3/beta2 (Rattus norvegicus, UniProt P04757+P12390). Kind of data set: Displacement of [3H]epibatidine from rat alpha3beta2 nicotinic receptor expressed in human HEK293 cells by liquid scintillation counting. The class given is cell-based.
Sequence of Neuronal acetylcholine receptor; alpha3/beta2 (P04757 whole entry): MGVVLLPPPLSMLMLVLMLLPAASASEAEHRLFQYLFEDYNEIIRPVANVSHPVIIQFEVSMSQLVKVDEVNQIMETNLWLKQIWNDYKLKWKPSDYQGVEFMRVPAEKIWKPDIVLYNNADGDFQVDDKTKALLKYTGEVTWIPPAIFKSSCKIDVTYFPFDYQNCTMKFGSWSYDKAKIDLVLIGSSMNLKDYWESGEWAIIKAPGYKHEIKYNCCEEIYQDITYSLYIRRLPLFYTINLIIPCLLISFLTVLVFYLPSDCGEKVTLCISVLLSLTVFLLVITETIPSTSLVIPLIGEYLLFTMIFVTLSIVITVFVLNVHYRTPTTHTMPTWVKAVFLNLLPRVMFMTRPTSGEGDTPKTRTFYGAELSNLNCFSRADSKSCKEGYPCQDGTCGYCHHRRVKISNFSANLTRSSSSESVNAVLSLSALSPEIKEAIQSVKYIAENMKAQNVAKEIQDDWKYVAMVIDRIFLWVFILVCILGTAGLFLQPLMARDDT
Sequence of Neuronal acetylcholine receptor; alpha3/beta2 (P12390 whole entry): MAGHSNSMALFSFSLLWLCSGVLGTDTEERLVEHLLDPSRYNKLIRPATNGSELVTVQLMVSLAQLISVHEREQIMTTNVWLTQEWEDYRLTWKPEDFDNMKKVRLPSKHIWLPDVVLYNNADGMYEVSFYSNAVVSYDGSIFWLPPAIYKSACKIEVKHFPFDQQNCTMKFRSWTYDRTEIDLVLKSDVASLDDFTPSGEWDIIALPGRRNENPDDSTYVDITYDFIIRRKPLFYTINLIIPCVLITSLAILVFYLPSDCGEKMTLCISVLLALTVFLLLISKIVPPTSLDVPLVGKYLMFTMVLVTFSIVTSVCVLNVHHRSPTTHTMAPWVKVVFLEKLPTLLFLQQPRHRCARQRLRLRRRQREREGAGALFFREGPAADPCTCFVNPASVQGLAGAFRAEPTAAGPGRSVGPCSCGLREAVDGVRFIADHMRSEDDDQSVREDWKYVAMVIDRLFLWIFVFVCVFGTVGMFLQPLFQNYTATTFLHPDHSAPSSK
Data set [4] deals with Neuronal acetylcholine receptor; alpha3/beta4 (Rattus norvegicus, UniProt P04757+P12392). Kind of data set: Displacement of [3H]epibatidine from rat alpha3beta4 nicotinic receptor expressed in human HEK293 cells by liquid scintillation counting. The format is cell-based.
Sequence of Neuronal acetylcholine receptor; alpha3/beta4 (P04757 whole entry): as the sequence (P04757 whole entry) above
Sequence of Neuronal acetylcholine receptor; alpha3/beta4 (P12392 whole entry): as the sequence (P12392 whole entry) above
The target of data set [5] is T1, Neuronal acetylcholine receptor; alpha4/beta2 (Rattus norvegicus, UniProt P09483+P12390). The data set is described as follows: Displacement of [3H]epibatidine from rat alpha4beta2 nicotinic receptor expressed in human HEK293 cells by liquid scintillation counting. The class given is cell-based.
T1 sequence (P09483 whole entry): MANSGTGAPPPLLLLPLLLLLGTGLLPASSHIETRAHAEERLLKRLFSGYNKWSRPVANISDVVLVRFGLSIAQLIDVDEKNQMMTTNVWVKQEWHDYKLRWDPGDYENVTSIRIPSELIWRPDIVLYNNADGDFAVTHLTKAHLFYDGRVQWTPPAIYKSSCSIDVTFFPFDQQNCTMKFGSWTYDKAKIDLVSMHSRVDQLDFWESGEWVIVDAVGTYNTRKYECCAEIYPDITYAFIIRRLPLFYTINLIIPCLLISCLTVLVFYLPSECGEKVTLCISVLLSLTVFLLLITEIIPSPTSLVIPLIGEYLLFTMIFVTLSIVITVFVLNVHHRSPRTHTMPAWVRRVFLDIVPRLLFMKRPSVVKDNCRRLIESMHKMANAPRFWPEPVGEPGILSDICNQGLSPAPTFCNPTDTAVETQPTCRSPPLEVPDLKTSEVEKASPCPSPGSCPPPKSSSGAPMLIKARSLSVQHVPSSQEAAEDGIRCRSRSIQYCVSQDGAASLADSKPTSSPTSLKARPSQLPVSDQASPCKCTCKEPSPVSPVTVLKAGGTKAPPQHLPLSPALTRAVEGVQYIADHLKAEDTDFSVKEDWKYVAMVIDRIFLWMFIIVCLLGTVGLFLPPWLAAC
T1 sequence (P12390 whole entry): as the sequence (P12390 whole entry) above
Data set [6] has as its target Neuronal acetylcholine receptor; alpha4/beta2 (Rattus norvegicus) (UniProt P09483+P12390). Kind of data set: Ratio of compound Ki to epibatidine Ki for rat alpha4beta2 nicotinic receptor expressed in human HEK293 cells. The class given is cell-based.
The target of data set [7] is Neuronal acetylcholine receptor; alpha4/beta4 (Rattus norvegicus, UniProt P09483+P12392). Kind of data set: Displacement of [3H]epibatidine from rat alpha4beta4 nicotinic receptor expressed in human HEK293 cells by liquid scintillation counting. The class given is cell-based.
Sequence of Neuronal acetylcholine receptor; alpha4/beta4 (P09483 whole entry): as the sequence (P09483 whole entry) above
Sequence of Neuronal acetylcholine receptor; alpha4/beta4 (P12392 whole entry): as the sequence (P12392 whole entry) above
The species entered for another data set is Rattus norvegicus. Kind of data set: Selectivity ratio of Ki for rat alpha3beta4 nicotinic receptor to Ki for rat alpha4beta2 nicotinic receptor.
Data set [8] can be described thus: Octanol-water partition coefficient, log D at pH 7.4 by shake flask method. The format is physicochemical.
The nature of data set [9]: Drug uptake in baboon brain thalamus assessed as binding potential at 21 mCi by bolus injection. The format is ADME, organism-based. The following applies: papio anubis, in vivo, iv.
The nature of data set [10]: Drug uptake in baboon brain thalamus assessed as binding potential at 17.5 mCi by bolus injection. The class given is ADME, organism-based. The following applies: papio anubis, in vivo, iv.
Data set [11] can be described thus: Drug uptake in baboon brain thalamus assessed as binding potential at 31 mCi by bolus injection. The format is ADME, organism-based. The following applies: papio anubis, in vivo, iv.
For data set [12], the target named is T1, Neuronal acetylcholine receptor; alpha4/beta2. Kind of data set: Displacement of [125I]5-A-85380 from alpha4beta2 nicotinic receptor in rat brain. The format is tissue-based.
The nature of data set [13]: Ratio of drug uptake in thalamus to cerebellum of CD1 mouse at 0.07 mCi, iv after 45 mins. The following applies: in vivo, 0.75 h. The class given is ADME, organism-based.

For `CN1CCC[C@H]1COc1cnc(Cl)c(OCc2ccc(Cl)nc2)c1`, the pKi (as a rule, the negative decadic logarithm of the Ki, by convention in mol/L) is 10.51 in data set [1]; 7.85 in data set [2]; 9.59 in data set [3]; 6.49 in data set [4]; 10.26 in [5]; 8.18 in data set [7]. Further, the Ratio Ki in data set [6] stood at 0.9; in the data set filed under Rattus norvegicus it was 5820.

Regarding `CN1CCC[C@H]1COc1cnc(Cl)c(-c2ccnc(F)c2)c1`, the logD – broadly, the decadic logarithm of the distribution of all forms, ionised or not, between an organic phase and buffer at a given pH – in [8] is recorded as 1.6. In addition, the pKi in data set [1] is 10.30; in [2] it was 7.57; in data set [3], 9.15; in [4], 6.23; in [5], 10.21; in data set [7], 7.80. Further, the Ratio Ki in data set [6] was 1; in the data set filed under Rattus norvegicus, 9520.

As for `[11CH3]N1CCC[C@H]1COc1cnc(Cl)c(-c2ccnc(F)c2)c1`, the Drug uptake in data set [9], in data set [10] and in data set [11] was 0.7 throughout.

For the compound `[11CH3]N1CCC[C@H]1COc1cnc(Cl)c(/C=C/c2ccncc2)c1`, the log distribution coefficient (logD) in data set [8] (read-out: logD) stood at 1.6. Also, the negative logarithm of the Ki (pKi) in [12] was 10.55.

Consider `Fc1cc(COc2cc(OC[C@@H]3CCCN3)cnc2Cl)ccn1`, for which the logD in data set [8] is given as 1.4. Also, the negative-log Ki (pKi) in data set [1] was 10.46; in [2], 8.09; in [3], 9.60; in data set [4] it was 7.37; in [5] it was 9.89; in data set [7], 8.96. The Ratio Ki in data set [6] amounted to 2.1; in the data set filed under Rattus norvegicus, 331.

Turning to `[11CH3]N1CCC[C@H]1COc1cnc(Cl)c(OCc2ccc(Cl)nc2)c1`, in data set [13], the Ratio was 3.8. Also, the Drug uptake in data set [9], in [10] and in data set [11] was 0.7 throughout.

For the compound `CN1CCC[C@@H]1COc1cnc(Cl)c(OCc2ccc(Cl)nc2)c1`, in data set [8], the logD is on record as 2.2. Also, the pKi in data set [1] was 8.82; in data set [2], 7.66; in [3], 9.07; in [4], 6.46; in data set [5], 8.96; in data set [7] it was 8.12. The Ratio Ki was 18 in data set [6] and 318 in the data set filed under Rattus norvegicus.

On to `CN1CCC[C@H]1COc1cnc(Cl)c(/C=C/c2ccncc2)c1`, for which the Ratio Ki in data set [6] turned out to be 2.8.

For the compound `Fc1ncccc1OC[C@@H]1CCN1`, the negative logarithm of the Ki (pKi) in [1] was 8.85; in [2] it was 6.74; in data set [3], 8.52; in data set [4] it was 5.43.

As to `CN1CCC[C@H]1COc1cnc(Cl)c(OCc2ccnc(F)c2)c1`, the pH-dependent lipophilicity (logD) in data set [8] is 1.8. For the same compound, the negative-log Ki (pKi) is 10.66 in data set [1]; 7.96 in data set [2]; 9.48 in data set [3]; 7.05 in data set [4]; 10.21 in data set [5]; 8.80 in [7]. For the same compound, the figures for the Ratio Ki (in data set [6]; in the data set filed under Rattus norvegicus) were 1 and 1450, respectively.
